Legend:
[1] = molecular target: human norepinephrine transporter (NET) (Homo sapiens (Human), UniProt P23975); test: Scintillation Proximity Assay (SPA) competition binding, human NET; conditions: recombinant hNET-CHO membranes, [3H]nisoxetine
[2] = molecular target: human serotonin transporter (SERT) (Homo sapiens (Human), UniProt P31645); test: Scintillation Proximity Assay (SPA) competition binding, human SERT; conditions: recombinant hSERT-CHO membranes, [3H]citalopram
[3] = molecular target: human dopamine transporter (DAT) (Homo sapiens (Human), UniProt Q01959); test: Scintillation Proximity Assay (SPA) competition binding, human DAT; conditions: recombinant hDAT-CHO membranes, [3H]WIN-35,428
human dopamine transporter (DAT), sequence (Q01959 whole entry): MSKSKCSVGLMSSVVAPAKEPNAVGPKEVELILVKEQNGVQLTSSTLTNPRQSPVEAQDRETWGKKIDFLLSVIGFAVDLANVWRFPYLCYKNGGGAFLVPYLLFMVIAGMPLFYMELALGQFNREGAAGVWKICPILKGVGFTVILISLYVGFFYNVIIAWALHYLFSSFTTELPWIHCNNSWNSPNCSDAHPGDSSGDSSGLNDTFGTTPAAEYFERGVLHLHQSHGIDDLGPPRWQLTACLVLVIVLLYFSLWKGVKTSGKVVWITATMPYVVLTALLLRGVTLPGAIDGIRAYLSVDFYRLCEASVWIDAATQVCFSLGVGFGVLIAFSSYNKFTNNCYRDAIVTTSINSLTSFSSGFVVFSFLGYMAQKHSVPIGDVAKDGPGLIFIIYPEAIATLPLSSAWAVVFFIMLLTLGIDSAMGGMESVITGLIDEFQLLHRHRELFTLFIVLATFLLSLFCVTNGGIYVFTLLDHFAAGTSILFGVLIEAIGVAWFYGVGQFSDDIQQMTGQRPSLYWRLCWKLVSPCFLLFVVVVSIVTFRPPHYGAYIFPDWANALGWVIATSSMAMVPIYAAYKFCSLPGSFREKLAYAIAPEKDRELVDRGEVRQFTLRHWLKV
In short: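 SPA binding on membranes from CHO cells stably expressing human DAT, with 5 nM [3H]WIN-35,428, WGA-PVT beads and 0.02% BSA in HEPES/NaCl/KCl buffer pH 7.4.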

[4] = molecular target: human ERG potassium channel (hERG) (Homo sapiens (Human), UniProt Q12809); test: hERG tail current recording, Rapid ICE automated patch-clamp; type: cell-based; conditions: HEK293 cells stably transfected with hERG
human ERG potassium channel (hERG), sequence (Q12809 whole entry): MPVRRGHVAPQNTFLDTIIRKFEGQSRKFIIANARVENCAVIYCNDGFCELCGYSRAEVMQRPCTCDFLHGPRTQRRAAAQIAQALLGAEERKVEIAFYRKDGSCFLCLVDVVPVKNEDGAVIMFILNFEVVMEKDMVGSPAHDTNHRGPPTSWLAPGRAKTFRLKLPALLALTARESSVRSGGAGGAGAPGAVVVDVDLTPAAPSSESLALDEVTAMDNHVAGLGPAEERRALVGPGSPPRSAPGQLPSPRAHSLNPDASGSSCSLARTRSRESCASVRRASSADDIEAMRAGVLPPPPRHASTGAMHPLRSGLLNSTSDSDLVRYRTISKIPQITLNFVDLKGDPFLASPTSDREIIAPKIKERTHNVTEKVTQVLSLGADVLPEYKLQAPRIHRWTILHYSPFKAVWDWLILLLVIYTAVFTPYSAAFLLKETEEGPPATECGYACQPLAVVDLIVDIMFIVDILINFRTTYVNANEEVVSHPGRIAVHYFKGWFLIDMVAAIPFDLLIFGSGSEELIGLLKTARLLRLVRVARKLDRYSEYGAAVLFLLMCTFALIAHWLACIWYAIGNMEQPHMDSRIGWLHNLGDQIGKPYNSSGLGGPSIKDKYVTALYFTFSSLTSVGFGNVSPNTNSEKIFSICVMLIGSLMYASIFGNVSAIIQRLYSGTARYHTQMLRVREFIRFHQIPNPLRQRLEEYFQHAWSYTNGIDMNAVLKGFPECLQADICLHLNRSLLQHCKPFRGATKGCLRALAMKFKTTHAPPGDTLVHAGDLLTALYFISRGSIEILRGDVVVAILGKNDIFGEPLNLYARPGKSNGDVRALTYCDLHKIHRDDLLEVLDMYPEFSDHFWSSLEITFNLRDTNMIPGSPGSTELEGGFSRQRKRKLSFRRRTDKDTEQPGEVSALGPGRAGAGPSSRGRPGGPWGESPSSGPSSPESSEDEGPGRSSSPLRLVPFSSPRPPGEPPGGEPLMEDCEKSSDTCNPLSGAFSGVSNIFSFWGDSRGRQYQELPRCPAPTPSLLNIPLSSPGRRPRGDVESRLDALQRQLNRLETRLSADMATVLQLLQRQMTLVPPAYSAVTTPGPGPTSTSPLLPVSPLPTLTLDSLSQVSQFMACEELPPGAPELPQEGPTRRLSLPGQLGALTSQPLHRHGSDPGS
Experimental: Measure of the Effect on hERG Channel by Tail Current Recording Using In Vitro Rapid ICE™
The potency of the compounds of the invention in inhibiting human ERG potassium channel (hERG) tail current is assessed in a recombinant HEK293 cell line stably transfected with hERG cDNA using Rapid ICE™ (Rapid Ion Channel Electrophysiology) assay. Rapid ICE™ is an automated patch-clamp assay utilizing the PatchXpress 7000A system (Molecular Devices Corporation) or the QPatch HTX system (Sophion Bioscience A/S).
Briefly cells are cultivated for 24 to 72 hours before recordings in minimum essential medium supplemented with 10% FBS, 1% non-essential amino acids, 1% sodium pyruvate, 2 mM L-glutamine. The day of the experiment cells are detached with TrypLE and prepared to be loaded on the instrument. For PatchXpress cells are finally resuspended in 150 μl of Extracellular Buffer whereas for QPatch cells are resuspended in 7 ml Serum-Free Media containing 25 mM Hepes and Soybean trypsin inhibitor and immediately placed in the cell storage tank of the machine. The composition of the Extracellular Buffer is (mM): NaCl 137; KCl 4; CaCl2 1.8; MgCl2 1.0; D-glucose 10; N 2 hydroxyethylpiperazine-N′-2-ethanesulfonic acid (HEPES) 10; pH 7.4 with 1 M NaOH. The composition of the pipette solution is (mM): KCl 130; MgCl2 1.0; Ethylene glycol-bis(β-aminoethyl ether)-N,N,N′,N′-tetraacetic acid (EGTA) 5; MgATP 5; HEPES 10; pH 7.2 with 1 M KOH. The voltage protocol includes the following steps: step from −80 mV to −50 mV for 200 ms, +20 mV for 4.8 s, step to −50 mV for 5 s then step to the holding potential of −80 mV. Compounds of the invention are dissolved in DMSO and diluted in Extracellular Buffer to achieve final test concentrations (0.1, 1 and 10 μM) in 0.1% DMSO. The voltage protocol is run and recorded continuously during the experiment. The vehicle, corresponding to 0.1% DMSO in Extracellular Buffer, is then applied for 3 min followed by the test substance in triplicate. The standard combined exposure time is 5 min. The average of tail current amplitude values recorded from 4 sequential voltage pulses is used to calculate for each cell the effect of the test substance by calculating the residual current (% control) compared with vehicle pre-treatment. Data are reported as % inhibition for each concentration tested and IC50 values are estimated using DataXpress or QPatch software. At least two cells are tested, more if results diverge.

human norepinephrine transporter (NET), sequence (P23975 whole entry): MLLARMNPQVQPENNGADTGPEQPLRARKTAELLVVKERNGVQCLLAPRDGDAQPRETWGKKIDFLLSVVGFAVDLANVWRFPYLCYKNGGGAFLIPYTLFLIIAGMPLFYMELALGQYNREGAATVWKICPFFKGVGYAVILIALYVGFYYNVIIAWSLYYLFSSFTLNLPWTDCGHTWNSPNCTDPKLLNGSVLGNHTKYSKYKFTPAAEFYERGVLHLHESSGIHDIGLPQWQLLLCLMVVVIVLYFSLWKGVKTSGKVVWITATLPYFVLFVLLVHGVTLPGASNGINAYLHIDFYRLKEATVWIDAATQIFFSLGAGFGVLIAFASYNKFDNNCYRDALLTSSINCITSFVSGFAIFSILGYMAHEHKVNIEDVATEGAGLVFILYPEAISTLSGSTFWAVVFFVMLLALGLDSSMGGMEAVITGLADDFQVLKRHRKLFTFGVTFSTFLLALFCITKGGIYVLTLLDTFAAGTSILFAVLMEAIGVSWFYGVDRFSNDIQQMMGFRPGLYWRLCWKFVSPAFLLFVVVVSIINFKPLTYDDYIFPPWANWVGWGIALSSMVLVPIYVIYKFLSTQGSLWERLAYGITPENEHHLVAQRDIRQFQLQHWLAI
human serotonin transporter (SERT), sequence (P31645 whole entry): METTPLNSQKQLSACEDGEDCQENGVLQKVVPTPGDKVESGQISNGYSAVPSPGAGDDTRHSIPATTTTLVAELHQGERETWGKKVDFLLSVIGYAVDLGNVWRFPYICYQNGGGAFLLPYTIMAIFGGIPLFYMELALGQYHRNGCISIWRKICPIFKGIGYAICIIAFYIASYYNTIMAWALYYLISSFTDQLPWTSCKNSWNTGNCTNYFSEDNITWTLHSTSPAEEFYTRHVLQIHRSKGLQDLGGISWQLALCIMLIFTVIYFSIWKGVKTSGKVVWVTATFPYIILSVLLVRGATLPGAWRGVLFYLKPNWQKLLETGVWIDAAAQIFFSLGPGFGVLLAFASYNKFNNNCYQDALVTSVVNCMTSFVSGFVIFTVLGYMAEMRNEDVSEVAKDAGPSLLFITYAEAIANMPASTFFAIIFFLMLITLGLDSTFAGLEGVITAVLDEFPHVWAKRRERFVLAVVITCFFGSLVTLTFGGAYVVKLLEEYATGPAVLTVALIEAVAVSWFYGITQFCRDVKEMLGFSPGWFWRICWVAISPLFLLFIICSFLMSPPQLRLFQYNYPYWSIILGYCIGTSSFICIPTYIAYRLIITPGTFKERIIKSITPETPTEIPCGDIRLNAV

Row | SMILES | pIC50 NET [1] | pIC50 SERT [2] | pIC50 DAT [3] | pIC50 hERG [4] | IC50 [2] [µM] | IC50 [4] [µM]
1 | Fc1cccc(Oc2cccc(N3CCC4(CC3)CNCCO4)c2F)c1 [Example 19, 9-[2-fluoro-3-(3-fluorophenoxy)phenyl]-1-oxa-4,9-diazaspiro[5.5]undecane] | 7.01 | 5.99 | 8.64 | 5.4 | – | –
2 | COc1cc(Oc2cccc(F)c2)nc(N2CCC3(CC2)CNCCO3)n1.Cl [Example 66, 9-[4-(3-fluorophenoxy)-6-methoxypyrimidin-2-yl]-1-oxa-4,9 diazaspiro[5.5]undecane hydrochloride] | 6.52 | 5.27 | 8.29 | 5.7 | – | –
3 | Fc1cccc(Oc2ccc(F)c(N3CCC4(CC3)CNCCO4)c2)c1 [Example 10, 9-[2-fluoro-5-(3-fluorophenoxy)phenyl]-1-oxa-4,9-diazaspiro[5.5]undecane] | 6.07 | 5.32 | 7.56 | 5.6 | – | –
4 | Cl.N#Cc1cccc(Oc2cc(C(F)(F)F)nc(N3CCC4(CC3)CNCCO4)n2)c1 [Example 59, 3-[(2-{1-oxa-4,9-diazaspiro[5.5]undecan-9-yl}-6-(trifluoromethyl)pyrimidin-4-yl)oxy]benzonitrile hydrochloride] | 5.67 | 5.15 | 8.01 | 7.0 | – | –
5 | Fc1cccc(Oc2ccccc2N2CCC3(CC2)CNCCO3)c1 [Example 4, 9-[2-(3-fluorophenoxy)phenyl]-1-oxa-4,9-diazaspiro[5.5]undecane] | 6.13 | 6.24 | 7.31 | 5.8 | – | –
6 | Cl.Fc1cccc(Oc2cc(C(F)(F)F)nc(N3CCC4(CC3)CNCC(F)(F)O4)n2)c1 [Example 70, 2,2-difluoro-9-[4-(3-fluorophenoxy)-6-(trifluoromethyl)pyrimidin-2-yl]-1-oxa-4,9-diazaspiro[5.5]undecane hydrochloride] | 5.17 | – | 6.65 | 5.0 | > 100 | –
7 | Cl.Fc1cccc(Oc2cncc(N3CCC4(CC3)CNCCO4)n2)c1 [Example 41, 9-[6-(3-fluorophenoxy)pyrazin-2-yl]-1-oxa-4,9-diazaspiro[5.5]undecane hydrochloride] | 5.33 | 6.02 | 7.44 | 5.9 | – | –
8 | Cl.Fc1cccc(Oc2cc(C3CC3)nc(N3CCC4(CC3)CNCCO4)n2)c1 [Example 65, 9-[4-cyclopropyl-6-(3-fluorophenoxy)pyrimidin-2-yl]-1-oxa-4,9-diazaspiro[5.5]undecane hydrochloride] | 7.08 | 5.44 | 8.79 | 5.7 | – | –
9 | Cl.Fc1cccc(Oc2cc(C(F)(F)F)cc(N3CCC4(CC3)CNCCO4)n2)c1 [Example 37, 9-[6-(3-fluorophenoxy)-4-(trifluoromethyl)pyridin-2-yl]-1-oxa-4,9-diazaspiro[5.5]undecane hydrochloride] | 7.07 | 5.33 | 8.86 | 5.9 | – | –
10 | Cl.Fc1ccccc1Oc1cc(C(F)(F)F)nc(N2CCC3(CC2)CNCCO3)n1 [Example 57, 9-[4-(2-fluorophenoxy)-6-(trifluoromethyl)pyrimidin-2-yl]-1-oxa-4,9-diazaspiro[5.5]undecane hydrochloride] | 5.94 | 6.18 | 7.89 | 5.7 | – | –
11 | Cl.Fc1cccc(Oc2ccnc(N3CCC4(CC3)CNCCO4)n2)c1 [Example 42, 9-[4-(3-fluorophenoxy)pyrimidin-2-yl]-1-oxa-4,9-diazaspiro[5.5]undecane hydrochloride] | 5.64 | 4.69 | 7.33 | 6.4 | – | –
12 | Fc1cccc(Oc2cc(F)c(F)cc2N2CCC3(CCNCC34OCCO4)C2)c1 (stereo not drawn) [Example 93, 8-[4,5-difluoro-2-(3-fluorophenoxy)phenyl]-1,4-dioxa-8,13-diazadispiro[4.0.4^6.4^5]tetradecane] | 6.64 | 6.90 | 8.44 | 6.0 | – | –
13 | Fc1cccc(Oc2cc(F)c(F)cc2N2CCC3(CCNC3)CC2)c1 [Example 91, 8-[4,5-difluoro-2-(3-fluorophenoxy)phenyl]-2,8-diazaspiro[4.5]decane] | 6.26 | 7.29 | 8.01 | 5.9 | – | –
14 | Fc1cccc(Oc2cc(F)c(F)cc2N2CCC3(CCNCC3)C2)c1 [Example 90, 2-[4,5-difluoro-2-(3-fluorophenoxy)phenyl]-2,8-diazaspiro[4.5]decane] | 6.85 | 6.31 | 8.36 | 6.1 | – | –
15 | Cl.N#Cc1cc(Oc2cccc(F)c2)nc(N2CCC3(CC2)CNCCO3)n1 [Example 62, 6-(3-fluorophenoxy)-2-{1-oxa-4,9-diazaspiro[5.5]undecan-9-yl}pyrimidine-4-carbonitrile hydrochloride] | 6.36 | 5.83 | 8.01 | 6.5 | – | –
16 | O=C1COC2(CCN(c3nc(Oc4cccc(F)c4)cc(C(F)(F)F)n3)CC2)CN1 [Example 68, 9-[4-(3-fluorophenoxy)-6-(trifluoromethyl)pyrimidin-2-yl]-1-oxa-4,9-diazaspiro[5.5]undecan-3-one] | 5.39 | 4.45 | 7.28 | – | – | > 10
17 | Cc1cc(Oc2cccc(C(F)(F)F)c2)nc(N2CCC3(CC2)CNCCO3)n1.Cl [Example 48, 9-{4-methyl-6-[3-(trifluoromethyl)phenoxy]pyrimidin-2-yl}-1-oxa-4,9-diazaspiro[5.5]undecane hydrochloride] | 5.48 | 5.58 | 6.50 | 5.6 | – | –
18 | Fc1cccc(Oc2cc(F)c(F)cc2N2CCC3(CCCNC3)C2)c1 (stereo not drawn) [Example 84, 2-[4,5-difluoro-2-(3-fluorophenoxy)phenyl]-2,7-diazaspiro[4.5]decane] | 6.76 | 6.33 | 7.94 | 6.6 | – | –
19 | Fc1cccc(Oc2cc(C(F)(F)F)nc(N3CCC4(CNCCC45OCCO5)C3)n2)c1 (stereo not drawn) [Example 87, 8-[4-(3-fluorophenoxy)-6-(trifluoromethyl)pyrimidin-2-yl]-1,4-dioxa-8,12-diazadispiro[4.0.4^6.4^5]tetradecane] | 6.82 | 5.43 | 8.67 | 6.0 | – | –
20 | Fc1cccc(Oc2cccc(N3CCC4(CC3)CNCCO4)c2)c1 [Example 7, 9-[3-(3-fluorophenoxy)phenyl]-1-oxa-4,9-diazaspiro[5.5]undecane] | 6.33 | 5.99 | 7.54 | 5.8 | – | –
21 | Fc1c(Oc2ccccc2)cccc1N1CCC2(CC1)CNCCO2 [Example 17, 9-(2-fluoro-3-phenoxyphenyl)-1-oxa-4,9-diazaspiro[5.5]undecane] | 6.46 | 5.65 | 8.42 | 5.4 | – | –

Source: patent publication US9908897B2, “Spirocyclic derivatives” (CHRONOS THERAPEUTICS LIMITED, priority 2014, dated 2018)
